# From the supplement of paper PMC10307832
# Experiments:
# Experiment in all cases: relative viability (nuclei count vs DMSO), 5 days (fraction); higher = more cells survive
# [1] = compound: COc1ncc(-c2ccc3nccc(-c4ccnnc4)c3c2)cc1NS(=O)(=O)c1ccc(F)cc1F [Omipalisib] + CC(=O)c1c(C)c2cnc(Nc3ccc(N4CCNCC4)cn3)nc2n(C2CCCC2)c1=O [Palbociclib] (partner 0.5 µM)
# Outline: (§1)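 The day after seeding in 1536-well plates, lung cancer cell lines were treated by pin tool with a single drug, or with a fixed anchor-drug dose together with five library-drug doses (not always all listed) in √10 steps. After 5 days, a combined fix-and-stain solution (final 0.05% Triton X-100, 1% formaldehyde, 1 ug/ml Hoechst) was added. Nuclei counted on 4× images gave relative viability as treated counts over vehicle counts, reported as the median of duplicate plates.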
# [2] = compound: COc1ncc(-c2ccc3nccc(-c4ccnnc4)c3c2)cc1NS(=O)(=O)c1ccc(F)cc1F [Omipalisib] + COc1cc2c(Oc3ccc(NC(=O)C4(C(=O)Nc5ccc(F)cc5)CC4)cc3F)ccnc2cc1OCCCN1CCOCC1 [Foretinib] (partner 0.25 µM)
# Outline: as §1
# [3] = compound: COc1ncc(-c2ccc3nccc(-c4ccnnc4)c3c2)cc1NS(=O)(=O)c1ccc(F)cc1F [Omipalisib] + COc1cccc2cc(-c3nc([C@H]4CC[C@H](C(=O)O)CC4)n4ncnc(N)c34)[nH]c12 [OSI-027] (partner 0.5 µM)
# Outline: as §1
# [4] = compound: COc1ncc(-c2ccc3nccc(-c4ccnnc4)c3c2)cc1NS(=O)(=O)c1ccc(F)cc1F [Omipalisib] + C[C@@H](Oc1cc(-c2cnn(C3CCNCC3)c2)cnc1N)c1c(Cl)ccc(F)c1Cl [Crizotinib] (partner 1 µM)
# Outline: as §1
# [5] = compound: COc1ncc(-c2ccc3nccc(-c4ccnnc4)c3c2)cc1NS(=O)(=O)c1ccc(F)cc1F [Omipalisib] + Cc1nc(Nc2ncc(C(=O)Nc3c(C)cccc3Cl)s2)cc(N2CCN(CCO)CC2)n1 [Dasatinib] (partner 0.075 µM)
# Outline: as §1
# [6] = compound: COc1ncc(-c2ccc3nccc(-c4ccnnc4)c3c2)cc1NS(=O)(=O)c1ccc(F)cc1F [Omipalisib] + Nc1nc2[nH]cc(CCc3ccc(C(=O)N[C@@H](CCC(=O)O)C(=O)O)cc3)c2c(=O)[nH]1 [Pemetrexed] (partner 0.2 µM)
# Outline: as §1
Cell Line,relative viability ([1]; first compound 0.0003 µM),relative viability ([1]; first compound 0.003 µM),relative viability ([1]; first compound 0.03 µM),relative viability ([2]; first compound 0.0003 µM),relative viability ([2]; first compound 0.003 µM),relative viability ([2]; first compound 0.03 µM),relative viability ([3]; first compound 0.0003 µM),relative viability ([3]; first compound 0.003 µM),relative viability ([3]; first compound 0.03 µM),relative viability ([4]; first compound 0.0003 µM),relative viability ([4]; first compound 0.003 µM),relative viability ([4]; first compound 0.03 µM),relative viability ([5]; first compound 0.0003 µM),relative viability ([5]; first compound 0.003 µM),relative viability ([5]; first compound 0.03 µM),relative viability ([6]; first compound 0.0003 µM),relative viability ([6]; first compound 0.003 µM),relative viability ([6]; first compound 0.03 µM)
NCI-H1915,0.509,0.483,0.446,1.05,1.08,0.983,0.618,0.473,0.574,0.841,0.892,0.863,0.278,0.257,0.275,0.545,0.534,0.509
NCI-H3122,0.168,0.153,0.144,0.942,0.802,0.522,0.863,0.376,0.216,0.258,0.231,0.159,0.641,0.0596,0.315,0.214,0.192,0.202
NCI-H2009,0.204,0.176,0.179,1.15,1.07,0.922,0.673,0.444,0.312,0.989,0.923,0.742,0.272,0.215,0.157,1.04,1.15,0.892
NCI-H1650,0.274,0.29,0.261,1.19,0.968,0.656,0.717,0.413,0.259,0.794,1.16,0.717,0.326,0.237,0.189,0.37,0.38,0.322
NCI-H2023,0.383,0.213,0.0832,0.908,0.433,0.233,0.344,0.169,0.0988,0.569,0.407,0.18,0.446,0.213,0.114,0.208,0.197,0.139
NCI-H2087,0.247,0.219,0.146,1.17,0.809,0.557,0.532,0.309,0.251,0.795,0.935,0.734,0.8,0.566,0.614,0.646,0.558,0.597
NCI-H322M,0.427,0.446,0.449,0.888,0.684,0.566,0.562,0.481,0.412,0.859,0.843,0.532,0.234,0.245,0.257,0.584,0.585,0.452
EPLC-272H,0.311,0.306,0.225,0.574,0.388,0.196,0.286,0.29,0.217,1.08,0.794,0.325,0.387,0.239,0.113,0.34,0.39,0.235
HARA,0.267,0.181,0.169,0.928,0.897,0.26,0.47,0.19,0.161,1.09,1.02,0.395,0.291,0.288,0.187,0.274,0.272,0.21
EMC-BAC-2,0.441,0.38,0.311,0.91,0.637,0.482,0.347,0.266,0.239,0.744,0.665,0.395,0.261,0.231,0.21,0.481,0.463,0.418
LCLC-97TM1,0.202,0.14,0.0751,0.934,0.468,0.189,0.589,0.251,0.2,0.243,0.159,0.11,0.883,0.74,0.472,0.191,0.146,0.14
NCI-H1944,0.264,0.25,0.169,0.811,0.457,0.31,0.396,0.256,0.201,1,0.858,0.439,0.194,0.17,0.156,0.626,0.471,0.324
NCI-H2405,0.507,0.392,0.312,1.01,0.756,0.39,0.661,0.359,0.296,0.852,0.769,0.408,0.213,0.204,0.166,1.12,0.718,0.444
NCI-H1975,0.669,0.248,0.173,0.991,0.672,0.287,0.772,0.415,0.159,0.925,0.736,0.307,0.33,0.249,0.113,0.35,0.3,0.22
HCC-78,0.48,0.411,0.414,0.436,0.433,0.266,0.37,0.35,0.288,0.299,0.232,0.192,0.359,0.313,0.219,0.88,0.927,0.922
CAL-12T,0.533,0.415,0.142,1.26,1.06,0.684,0.753,0.404,0.232,0.574,0.676,0.436,0.53,0.241,0.0952,1.17,1.15,0.721
NCI-H23,0.391,0.239,0.211,0.851,0.681,0.461,0.62,0.365,0.321,0.425,0.263,0.283,0.826,0.468,0.332,0.692,0.44,0.374
